Laboratory results: patent publication EP2518139A1, “Use of indirubin derivatives for producing pluripotent stem cells” (Universitätsklinikum Jena, priority 2011, dated 2012)

How the values were obtained:
tumor cells = assay: MTT assay, tumor cells; format: cell-based; settings: various cancer cell lines, read-out: IC50-values, tumor cells growth
[1] = system: mono-, di- and poly-ubiquitins; assay: Immunoblot of ubiquitins in HeLa cells; format: cell-based, human; settings: BMP-stimulated HeLa, 24h; MG132 5µM, E738 (1µM)
Protocol: (§1) Western blot:: Cell extracts were homogenized in Urea-Lysis buffer (1mM EDTA,0.5% Triton X-100), 5mM NaF, 6M Urea, 1mM Na3VO4, 10µg/mL Pepstatin, 100µM PMSF and 3µg/mL Aprotinin in PBS). Enhanced chemiluminescence (ECL) Western blot analysis was performed. 20-40µg of total protein was resolved on 10% SDS-PAGE gels and immunoblotted with specific antibodies. Primary antibodies were incubated at a 1:1,000 dilution in TBS (pH 7.5) with 0.1% Tween-20 and 5% BSA/nonfat milk with gentle agitation overnight at 4°C. The proper secondary antibodies were incubated in TBS (pH 7.5) with 5% BSA/nonfat milk and 0.1 % Tween-20 at a 1:5,000 dilution for 1 h at room temperature.
Ubiquitin-proteasome degradation system is the major route to protein degradation. To identify if indirubin-induced degradation is conducted by proteasome, we utilized MG132, a general proteasome inhibitor, to characterize the role of proteasome in degradation. We found 5µM MG132 was sufficient to rescue the E738 mediated Smad1/5/8 […] 24h after treatment (Fig. 5E and 5F). […] Thus we interpreted that E738 might be able to promote degradation of polymerased ubiquintins through activating the formation of complexes with certain substrates, speculatively like Smad1/2/3/5/8, leading to accelerate the recycling of mono-ubiquitin, while MG132 blocked the degradation of these complexes and arrest such recycling. […]

Sox2 = assay: Immunoblot of Sox2 expression in HFF cells; format: cell-based, human; settings: 2h
Smad1/5/8 [2] = assay: Immunoblot of p- and pan-Smad1/5/8 in NIH 3T3; format: cell-based, mouse; settings: NIH3T3, BMP2 (100ng/mL), 24h
Protocol: (§2) Cell culture: HeLa and C2C12 were cultured in DMEM containing 10% FCS and 1 % PS. HFF was cultured in DMEM containing 15% FCS and 1 %PS. NIH 3T3 was cultured in DMEM containing 10% NCS and 1% PS. The cells were maintained unter 5% CO2 at 37°C in a humidified atmosphere. After 24h preincuabtion in serum-free medium, the cells were treated with various compounds and proteins as indicated in context. Transfection of siRNA oligonuleotide against Smurf1 was reported by Zhu et al (Zhu et al., nature 2006) and synthesized by riboxx and performed using riboxx®FECT reagent according to the manufacturer's instructions. 24h after transfection, the cells were treated with BMP (100ng/mL) and Compound as indicated before lysis.
as §1, with “temperature. […]” for “temperature.”

[3] = system: BMP- and TGFß-relative R-Smads; assay: Immunoblot of BMP- and TGFß-relative R-Smads in HeLa cells (TGFß or FCS stimulation); format: cell-based, human
Smad1/5/8 [4] = assay: Immunoblot of p- and pan-Smad1/5/8 in C2C12; format: cell-based, mouse; settings: C2C12, BMP2 (100ng/mL), 24h, E738 0,5µM, 1µM and 5µM
Protocol: as §2
as §1, with “temperature. […]” for “temperature.”

Smad1/5/8 [5] = assay: Immunostaining of pan-Smad1/5/8 in C2C12; format: cell-based, mouse; settings: C2C12, BMP2 (100ng/mL), 12h
Protocol: Immunostaining: The serum-depleted C2C12 cells were coinbubated with BMP2 (100ng/mL) and E738 at various concentration as indicated for 12h. Cells were fixed in 4% PFA and immunostained with Smad1/5/8 antibody (1:100) and DAPI as described previously.
To access the generality of the E738 effect on BMP/Smad, we treated C2C12, HFF and NIH 3T3 with various concentrations of E738 and probed cell extracts with p- and pan-Smad1/5/8 antibodies. […] In addition, E738 at 0.5µM concentration is already sufficient to reduce Smad1/5/8 in HFF and NIH3T3 implicating that fibroblast might be more sensitive to the IRDs treatment.

[6] = system: Smad1, Smad2, Smad4, Smurf1 and Smurf2; assay: qRT-PCR of Smad and Smurf expression in HeLa cells; format: cell-based, human; settings: BMP2 plus E738, 24h
Protocol: RT-PCR: Total RNA was isolated with RNA isolation kit from Qiagen according to the manufacturer's instructions. cDNA was generated by reverse-transcription of equivalent quantities of RNA and Quantitative real-time PCR (QRT-PCR) was performed as described previously.
We considered the possibility of E738 to block Smads RNA synthesis. […] The expressions of Smad-relative E3 ligases, Smurf1 and Smurf2, were inhibited more effectively and only 50% Smurf1 and 30% Smurf2 was remained to expressed. The results provided the regulation of indirubin in RNA level of R-Smads. […] We thus concluded occurrence of degradation direct in protein level rather than in RNA level.

HeLa cells = assay: Growth inhibition of HeLa cells, BMP2 versus FCS; format: cell-based, human
Smad1/5/8 [7] = assay: Immunoblot of p- and pan-Smad1/5/8 in HFF; format: cell-based, human; settings: BMP2 (100ng/mL), 24h
Protocol: as §2
as §1, with “temperature. […]” for “temperature.”

COc1ccc2c(c1)C(=C1Nc3ccccc3C1=NOCC(O)CO)C(=O)N2 (stereo not shown) [E738]
IC50 (tumor cells): < 1000 nM
mono-, di- and poly-ubiquitins [1]: more mono-ubiquitin, but less di- and poly-ubiquitins
expression of Sox2 (Sox2): stimulates expression of Sox2
concentration sufficient to reduce Smad1/5/8 (Smad1/5/8 [2]): 0.5 µM
p- and pan-Smad1/5/8 (Smad1/5/8 [2]; E738 0,5µM, 1µM and 5µM): decline of both
BMP- and TGFß-relative R-Smads ([3]; BMP2 (100ng/mL) or TGFß (20ng/mL), 4h treatment): influenced on both BMP- and TGFß-relative R-Smads in concentration dependent manner
P- and pan-Smads (R-Smads) ([3]; TGFß (20ng/mL), 24h, E738 (1µM), Bio (5µM), DM (1µM), Repsox (10µM)): abolishment of both BMP- and TGFß-relative R-Smads
p- and pan-Smad1/5/8 (Smad1/5/8 [4]): decline of both
pan Smad1/5/8 by immunostaining (Smad1/5/8 [5]): depletion of pan Smad1/5/8 as early as 12h treatment
Smad1 expression, repressed up to [6]: up to 60%
Smad2 expression, repressed up to [6]: ≤ 30%
Smurf1 remained to expressed [6]: 50%
Smurf2 remained to expressed [6]: 30%
more efficient inhibition of HeLa cells growth in response to BMP2 than FCS (HeLa cells): above 10 fold
concentration sufficient to reduce Smad1/5/8 (Smad1/5/8 [7]): 0.5 µM
p- and pan-Smad1/5/8 (Smad1/5/8 [7]; E738 0,5µM, 1µM and 5µM): decline of both
